These results are taken from patent US8841309B2, “Substituted pyrazines and their use in the treatment of disease” (Boehringer Ingelheim International GmbH, priority 2012, dated 2014).

The structures appear in SMILES notation.

This assay concerns the target T1, ENaC (Mus musculus, UniProt Q61180+Q9WU38+Q9WU39).
T1 construct: Mouse kidney M-1 cells were cultivated in DMEM containing 5% FCS and 5 μM dexamethasone; endogenous in cells; host or cells: mouse kidney M-1 cells
T1 sequence (Q61180 1-699): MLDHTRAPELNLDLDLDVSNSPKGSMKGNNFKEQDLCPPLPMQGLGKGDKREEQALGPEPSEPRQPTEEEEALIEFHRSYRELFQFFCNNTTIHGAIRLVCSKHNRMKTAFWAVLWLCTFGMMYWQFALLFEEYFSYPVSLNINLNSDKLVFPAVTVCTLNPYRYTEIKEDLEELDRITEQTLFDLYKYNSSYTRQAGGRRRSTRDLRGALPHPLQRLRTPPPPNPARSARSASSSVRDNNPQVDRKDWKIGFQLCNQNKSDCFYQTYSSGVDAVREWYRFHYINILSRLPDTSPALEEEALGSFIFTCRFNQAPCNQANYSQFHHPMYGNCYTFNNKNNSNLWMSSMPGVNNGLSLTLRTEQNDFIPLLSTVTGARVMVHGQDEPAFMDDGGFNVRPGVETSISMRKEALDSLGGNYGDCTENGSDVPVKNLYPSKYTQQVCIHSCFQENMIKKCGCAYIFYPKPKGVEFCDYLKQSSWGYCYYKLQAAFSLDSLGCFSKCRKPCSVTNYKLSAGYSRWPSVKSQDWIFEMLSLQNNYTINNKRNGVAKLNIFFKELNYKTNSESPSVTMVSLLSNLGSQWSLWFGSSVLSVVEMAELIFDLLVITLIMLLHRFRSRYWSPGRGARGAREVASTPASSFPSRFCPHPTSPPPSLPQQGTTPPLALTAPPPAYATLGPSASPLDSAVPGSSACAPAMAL
T1 sequence (Q9WU38 1-638): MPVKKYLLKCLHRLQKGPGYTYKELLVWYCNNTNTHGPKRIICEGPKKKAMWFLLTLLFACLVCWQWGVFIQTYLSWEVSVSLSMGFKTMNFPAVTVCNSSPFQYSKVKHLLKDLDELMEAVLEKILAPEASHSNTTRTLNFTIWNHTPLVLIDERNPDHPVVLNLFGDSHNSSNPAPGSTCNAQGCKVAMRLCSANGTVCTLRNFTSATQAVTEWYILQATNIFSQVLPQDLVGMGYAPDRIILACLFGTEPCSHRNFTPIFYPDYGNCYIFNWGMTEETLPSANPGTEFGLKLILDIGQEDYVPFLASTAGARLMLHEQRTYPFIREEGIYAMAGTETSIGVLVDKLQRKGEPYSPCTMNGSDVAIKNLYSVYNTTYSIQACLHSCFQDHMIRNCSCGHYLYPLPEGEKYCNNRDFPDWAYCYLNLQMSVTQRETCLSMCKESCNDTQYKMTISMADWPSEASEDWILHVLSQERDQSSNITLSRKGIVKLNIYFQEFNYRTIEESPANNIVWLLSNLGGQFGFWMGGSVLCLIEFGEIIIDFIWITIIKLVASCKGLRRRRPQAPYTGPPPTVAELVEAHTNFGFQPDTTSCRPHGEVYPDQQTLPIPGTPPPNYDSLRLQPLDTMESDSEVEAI
T1 sequence (Q9WU39 1-655): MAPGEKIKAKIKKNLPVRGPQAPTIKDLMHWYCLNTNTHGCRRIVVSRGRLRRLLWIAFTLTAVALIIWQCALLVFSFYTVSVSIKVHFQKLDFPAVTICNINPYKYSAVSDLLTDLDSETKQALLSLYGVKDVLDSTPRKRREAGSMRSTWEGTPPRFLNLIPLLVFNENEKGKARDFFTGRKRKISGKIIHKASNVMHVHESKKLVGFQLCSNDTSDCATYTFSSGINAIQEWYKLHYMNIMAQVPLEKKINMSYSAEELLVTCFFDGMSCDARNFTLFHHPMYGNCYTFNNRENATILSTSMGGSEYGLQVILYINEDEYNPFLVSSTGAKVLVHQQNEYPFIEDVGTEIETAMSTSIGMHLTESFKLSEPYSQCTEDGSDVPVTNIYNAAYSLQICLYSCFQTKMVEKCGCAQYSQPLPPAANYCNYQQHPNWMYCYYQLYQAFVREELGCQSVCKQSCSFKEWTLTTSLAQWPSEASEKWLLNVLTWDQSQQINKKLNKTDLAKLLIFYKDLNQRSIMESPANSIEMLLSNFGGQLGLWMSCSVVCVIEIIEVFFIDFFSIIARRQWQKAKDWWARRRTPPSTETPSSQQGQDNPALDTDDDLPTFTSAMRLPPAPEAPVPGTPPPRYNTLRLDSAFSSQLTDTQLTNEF
Kind of assay: Ussing chamber: short circuit current (I_sc) in mouse kidney M-1 cells, amiloride-sensitive. The class given is cell-based. The following applies: compound applied to apical solution, 37° C. On the procedure:
Ussing Chamber: Mouse kidney M-1 cells were cultivated in DMEM containing 5% FCS and 5 μM dexamethasone for 10 to 12 days on polyester transwell filters. Filters were inserted into a teflon-coated well-plate which fit into the in-house ussing chamber system. Prior to measurement the medium of M-1 cells was replaced with Caco-2 transport buffer (Invitrogen, Germany). During measurements, the Ussing chamber temperature was kept at 37° C. Short circuit currents (I_sc) were measured in the voltage-clamp mode using an in-house built amplifier (Boehringer Ingelheim, Biberach) with the software package Lab View for data acquisition and analysis. The transepithelial electrical resistance (TEER) was determined by the application of voltage steps of ±5 mV every 5 sec. Compounds were administered at a final concentration of 3 μM or at increasing concentrations (1-3-10 μM) to the apical solution. At the end of each experiment the amiloride sensitive I_SC was measured by adding 3 μM amiloride to the apical compartment. Results are expressed as inhibition in percent of the amiloride effect or as IC50.
A word on the IC50: it is the midpoint of a concentration-inhibition curve. The low end stands for inhibition by little substance, the high end for a need for much substance. The compound `NC(=NC(=O)c1nc(Cl)c(N)nc1N)N[C@@H]1C[N+]2(Cc3ccc(CO)cc3)CCC1CC2` [Example 17] gave an IC50 of 0.052 µM. That is a double-digit nanomolar value.

`NC(=NC(=O)c1nc(Cl)c(N)nc1N)N[C@@H]1C[N+]2(Cc3ccc(C(F)(F)F)cc3)CCC1CC2` [Example 18] had an IC50 of 0.043 µM. This IC50 and that of the compound before are within 1.5-fold of each other.

As for `NC(=NC(=O)c1nc(Cl)c(N)nc1N)N[C@@H]1C[N+]2(Cc3ccc(OCc4ccccc4)cc3)CCC1CC2` [Example 19], half-maximal inhibition (IC50) was put at 0.032 µM. This IC50 and that of the compound before are within 1.5-fold of each other.

For `NC(=NC(=O)c1nc(Cl)c(N)nc1N)N[C@@H]1C[N+]2(Cc3nc4ccccc4s3)CCC1CC2` [Example 20], the IC50 turned out to be 0.029 µM.

For `CS(=O)(=O)c1ccc(C[N+]23CCC(CC2)[C@H](NC(N)=NC(=O)c2nc(Cl)c(N)nc2N)C3)cc1` [Example 21], inhibition was half-maximal at 0.176 µM (IC50).

Consider `COc1ccccc1C[N+]12CCC(CC1)[C@H](NC(N)=NC(=O)c1nc(Cl)c(N)nc1N)C2` [Example 22], for which the IC50 worked out at 0.092 µM.

For `CC#CC[N+]12CCC(CC1)[C@H](NC(N)=NC(=O)c1nc(Cl)c(N)nc1N)C2` [Example 23], the IC50 is 0.172 µM.

`CCNC(=O)C[N+]12CCC(CC1)[C@H](NC(N)=NC(=O)c1nc(Cl)c(N)nc1N)C2` [Example 24] yielded an IC50 of 0.056 µM.

For the compound `NC(=O)c1ccc(C[N+]23CCC(CC2)[C@H](NC(N)=NC(=O)c2nc(Cl)c(N)nc2N)C3)cc1` [Example 25], the IC50 was 0.693 µM.

`NC(=NC(=O)c1nc(Cl)c(N)nc1N)N[C@@H]1C[N+]2(Cc3ccc(F)c(Cl)c3)CCC1CC2` [Example 26] came in with an IC50 of 0.013 µM.

For the compound `NC(=NC(=O)c1nc(Cl)c(N)nc1N)N[C@@H]1C[N+]2(Cc3cccc(Cl)c3)CCC1CC2` [Example 27], the IC50 worked out at 0.012 µM. The IC50 values of the last two compounds are within 1.5-fold of each other.

For `COc1cc(C[N+]23CCC(CC2)[C@H](NC(N)=NC(=O)c2nc(Cl)c(N)nc2N)C3)cc(OC)c1` [Example 28], the IC50 was 0.08 µM.

In turn, `NC(=NC(=O)c1nc(Cl)c(N)nc1N)N[C@@H]1C[N+]2(Cc3ccc(Cl)s3)CCC1CC2` [Example 29] registered an IC50 of 0.029 µM.

In turn, `CCN(CC)C(=O)C[N+]12CCC(CC1)[C@H](NC(N)=NC(=O)c1nc(Cl)c(N)nc1N)C2` [Example 30] gave an IC50 of 0.035 µM. This IC50 and that of the compound before are within 1.5-fold of each other.

Turning to `Cc1nc(C[N+]23CCC(CC2)[C@H](NC(N)=NC(=O)c2nc(Cl)c(N)nc2N)C3)cs1` [Example 31], the IC50 is 0.054 µM.

Compound `N#Cc1ccc(C[N+]23CCC(CC2)[C@H](NC(N)=NC(=O)c2nc(Cl)c(N)nc2N)C3)cc1` [Example 32] yielded an IC50 of 0.202 µM.

Compound `N#Cc1cccc(C[N+]23CCC(CC2)[C@H](NC(N)=NC(=O)c2nc(Cl)c(N)nc2N)C3)c1` [Example 33] gave an IC50 of 0.038 µM. This IC50 is about 5.3-fold lower than that of the compound before.

`NC(=NC(=O)c1nc(Cl)c(N)nc1N)N[C@@H]1C[N+]2(CC(=O)NCc3ccccc3)CCC1CC2` [Example 34] yielded an IC50 of 0.007 µM.

The compound `NC(=NC(=O)c1nc(Cl)c(N)nc1N)N[C@@H]1C[N+]2(Cc3cscn3)CCC1CC2` [Example 35] came in with an IC50 of 0.15 µM. This IC50 lies about 21-fold higher than the previous one.

`NC(=NC(=O)c1nc(Cl)c(N)nc1N)N[C@@H]1C[N+]2(Cc3cc(F)cc(F)c3)CCC1CC2` [Example 36] gave an IC50 of 0.03 µM.

`COc1cccc(C[N+]23CCC(CC2)[C@H](NC(N)=NC(=O)c2nc(Cl)c(N)nc2N)C3)c1OC` [Example 37] registered a concentration for half-maximal inhibition (IC50) of 0.034 µM.

`NC(=NC(=O)c1nc(Cl)c(N)nc1N)N[C@@H]1C[N+]2(Cc3ccc(F)c(F)c3)CCC1CC2` [Example 38] registered an IC50 of 0.023 µM.

`NC(=NC(=O)c1nc(Cl)c(N)nc1N)N[C@@H]1C[N+]2(CC(=O)OCc3ccccc3)CCC1CC2` [Example 39] registered an IC50 of 0.023 µM. In other words, the double-digit nanomolar range.

As for `NC(=NC(=O)c1nc(Cl)c(N)nc1N)N[C@@H]1C[N+]2(Cc3ccc(CC(=O)O)cc3)CCC1CC2` [Example 40], 0.625 µM corresponded to half-maximal inhibition (IC50).

`NC(=NC(=O)c1nc(Cl)c(N)nc1N)N[C@@H]1C[N+]2(CC(=O)c3ccccc3)CCC1CC2` [Example 41] yielded an IC50 of 0.063 µM. This IC50 lies about 9.9-fold lower than the previous one.

On to `CCOC(=O)C[N+]12CCC(CC1)[C@H](NC(N)=NC(=O)c1nc(Cl)c(N)nc1N)C2` [Example 42], for which the IC50 stood at 0.191 µM.

Consider `NC(=NC(=O)c1nc(Cl)c(N)nc1N)N[C@@H]1C[N+]2(CC(=O)NCc3ccc(Cl)cc3)CCC1CC2` [Example 44], for which the IC50 came out at 0.002 µM.

As for `NC(=NC(=O)c1nc(Cl)c(N)nc1N)N[C@@H]1C[N+]2(Cc3ccncc3)CCC1CC2` [Example 45], the IC50 is 0.279 µM.

Regarding `CC(C)(C)OC(=O)c1ccc(C[N+]23CCC(CC2)[C@H](NC(N)=NC(=O)c2nc(Cl)c(N)nc2N)C3)cc1` [Example 46], 0.267 µM corresponded to half-maximal inhibition (IC50).

`NC(=NC(=O)c1nc(Cl)c(N)nc1N)N[C@@H]1C[N+]2(Cc3nnsc3Cl)CCC1CC2` [Example 47] registered an IC50 of 0.226 µM. The IC50 values of the last two compounds are within 1.5-fold of each other.

In turn, `NC(=NC(=O)c1nc(Cl)c(N)nc1N)N[C@@H]1C[N+]2(Cc3ccc(SC(F)(F)F)cc3)CCC1CC2` [Example 48] yielded an IC50 of 0.023 µM.

Consider `CC(C)NC(=O)C[N+]12CCC(CC1)[C@H](NC(N)=NC(=O)c1nc(Cl)c(N)nc1N)C2` [Example 49], for which half-maximal inhibition (IC50) required 0.029 µM. The IC50 values of the last two compounds are within 1.5-fold of each other.

As for `NC(=NC(=O)c1nc(Cl)c(N)nc1N)N[C@@H]1C[N+]2(Cc3cccnc3)CCC1CC2` [Example 50], the IC50 was found to be 0.104 µM.

The compound `NC(=NC(=O)c1nc(Cl)c(N)nc1N)N[C@@H]1C[N+]2(Cc3ccc(OC(F)(F)F)cc3)CCC1CC2` [Example 51] registered an IC50 of 0.089 µM.

For the compound `CSc1ccc(C[N+]23CCC(CC2)[C@H](NC(N)=NC(=O)c2nc(Cl)c(N)nc2N)C3)cc1` [Example 52], the IC50 came out at 0.067 µM.

Take `NC(=NC(=O)c1nc(Cl)c(N)nc1N)N[C@@H]1C[N+]2(CC3CCCCC3)CCC1CC2` [Example 53]: the IC50 is 0.07 µM.

Compound `NC(=NC(=O)c1nc(Cl)c(N)nc1N)N[C@@H]1C[N+]2(Cc3ccccc3OC(F)(F)F)CCC1CC2` [Example 54] had an IC50 of 0.069 µM.

In the case of `NC(=NC(=O)c1nc(Cl)c(N)nc1N)N[C@@H]1C[N+]2(CC(=O)NCCc3ccccc3)CCC1CC2` [Example 55], the IC50 stood at 0.001 µM.

The compound `CSc1cccc(C[N+]23CCC(CC2)[C@H](NC(N)=NC(=O)c2nc(Cl)c(N)nc2N)C3)c1` [Example 56] came in with an IC50 of 0.012 µM.

With `NC(=NC(=O)c1nc(Cl)c(N)nc1N)N[C@@H]1C[N+]2(CC(=O)N3CCOCC3)CCC1CC2` [Example 57], the IC50 came to 0.071 µM.

The compound `NC(=NC(=O)c1nc(Cl)c(N)nc1N)N[C@@H]1C[N+]2(CC(=O)Nc3ccccc3)CCC1CC2` [Example 58] yielded an IC50 of 0.025 µM. Against the preceding compound, the IC50 is about 2.8-fold lower.
